# Laboratory results reported in patent US10717964B2, “Synthetic methylotrophy to liquid fuels and chemicals” (University of Delaware, priority 2014, dated 2020).
# Assays:
# [1] = test system: E. coli pACM4_pFRM_GFP+pETM6-BstMDH; assay type: cell-based; settings: 2000 and 4000 mM methanol, MOPS+0.1% glucose
# Source text: Overnight LB cultures were transferred to MOPS+0.1% glucose for the experiment.
# E. coli pETM6_Pfrm_GFP = assay type: cell-based; settings: 2 and 4 mM HCHO, MOPS+0.1% glucose
# Source text: (§1) GFP expression correlated with HCHO concentration over time. Overnight LB cultures were transferred to MOPS+0.1% glucose for the experiment.
# E. coli pACM4_pFRM_GFP = assay type: cell-based; settings: 500 and 1000 μM HCHO, MOPS+0.1% glucose
# Source text: as §1
# [2] = test system: E. coli Rosetta empty vector control (pET21_Empty); test: Growth of empty vector control E. coli in media spiked with formaldehyde; assay type: cell-based; settings: LB plus formaldehyde (2 mM) or mixture of M9 and LB plus formaldehyde (1.5 mM)
# Experimental: FIGS. 42A-B show growth of E. coli expressing HPS and PHI genes from M. gastri. The ability of E. coli to grow in A) LB or B) mixed M9:LB (3:1) spiked with formaldehyde was assessed. Log phase cultures of E. coli harboring pET_M.g.PHI_HPS (circles) or pET21_Empty (squares) were induced with 0.5 mM IPTG for 3 h before being diluted into test media containing 2 mM formaldehyde (LB) or 1.5 mM formaldehyde (M9:LB). Aliquots were taken from the cultures at the indicated time points to determine the optical density (OD600). Arrows indicate times in which the cultures were spiked with (A) 2 mM or (B) 1.5 mM formaldehyde.
# Primers were designed to amplify the Mycobacterium gastri phi-hps operon, which encodes the genes necessary to fix formaldehyde to ribulose-5-phosphate yielding hexulose-6-phosphate, and then convert […] to fructose-6-phosphate. Genes were amplified and initially cloned into the expression vector pET21a (Novagen). This vector utilizes the T7 promoter, and was transformed into the Rosetta strain of E. coli. E. coli Rosetta expressing the M. gastri PHI-HPS operon was compared with an empty vector control for growth in LB with 2 mM formaldehyde (FIG. 42A-B). […] When the same strains were tested in M9 minimal media containing only formaldehyde (0.25 mM) as the sole carbon source, no increase in OD600 was observed (FIG. 43).
# [3] = test system: formate dehydrogenase (FDH, fdh) from Clostridium carboxidivorans P7T; settings: read-out: Km (for NADH); cited from earlier work
# [4] = substrate: CO; test: cells, lysate or membranes named; settings: other: crude cell extracts of E. coli, in vitro
molecule,measurement,setting,value
CO [methanol],growth,[1],Retarded growth
C=O [formaldehyde],growth,E. coli pETM6_Pfrm_GFP,No growth was observed
same,growth,E. coli pACM4_pFRM_GFP,Retarded growth
same,growth,[2],unable to grow
NC(=O)C1=CN([C@@H]2O[C@H](COP(=O)(O)OP(=O)(O)OC[C@H]3O[C@@H](n4cnc5c(N)ncnc54)[C@H](O)[C@@H]3O)[C@@H](O)[C@H]2O)C=CC1 [NADH],Km,[3],50 µM
methanol dehydrogenase MDH1 (MDH) from Bacillus stearothermophilus (Geobacillus stearothermophilus) (protein) MKAAVVNEFKKALEIKEVERPKLEEGEVLVKIEACGVCHTDLHAAHGDWPIKPKLPLIPGHEGVGIVVEVAKGVKSIKVGDRVGIPWLYSACGECEYCLTGQETLCPHQLNGGYSVDGGYAEYCKAPADYVAKIPDNLDPVEVAPILCAGVTTYKALKVSGARPGEWVAIYGIGGLGHIALQYAKAMGLNVVAVDISDEKSKLAKDLGADIAINGLKEDPVKAIHDQVGGVHAAISVAVNKKAFEQAYQSVKRGGTLVVVGLPNADLPIPIFDTVLNGVSVKGSIVGTRKDMQEALDFAARGKVRPIVETAELEEINEVFERMEKGKINGRIVLKLKED,Km,[4],27000 µM
